Results published in publication PMC7070897 (Molecules, 2020).
Values joined by “and” are separate entries in the source; they are usually repeats but may differ in a detail not shown here. Identical values can stand only once. Like-named read-outs stand apart in the source and are kept apart here. Positions of bridges follow the written chain, without caps; N, C: chain ends. Residues, ends and D or L forms follow the SMILES beside them.

Legend:
[1] = on-resin Ugi-4CR macrocyclisation (stapling), Lys side-chain amine (i) to Asp/Glu side-chain acid (i+4): 1) paraformaldehyde 4 eq, pyrrolidine 4 eq, THF/MeOH 1:1, 30 min (imine); 2) isocyanide R-NC 4 eq, DCM/TFE 1:1, overnight; then TFA/TIS/H2O cleavage; details: the molecule shown is the open-chain precursor, 18.0 h, 3 steps
[2] = system: Phytophthora infestans (Mont.) de Bary
[3] = read-out: IC50 in μM, Phythophtora Infestants, Figures 1B and 2C, 96-well plate, OD 405 nm seven days after inoculation, triplicate, IC50 from dose-response curves by linear regression
[4] = read-out: Half maximal inhibitory concentration, Botrytis Cinerea
[5] = read-out: Half maximal inhibitory concentration, Phytophthora Infestans
[6] = read-out: Half maximal inhibitory concentration, Septoria Tritici

Compound | IC50 (Botrytis cinerea Pers.; [4]) [µM] | IC50 [2, 5] [µM] | IC50 (Septoria tritici Desm.; [6]) [µM] | other results
C=NCCCC[C@H](NC(=O)[C@H](C)NC(=O)[C@H](CCCCNC(=O)OC(C)(C)C)NC(=O)[C@H](CC(C)C)NC(=O)[C@H](CC(C)C)NC(=O)[C@H](CCCCNC(=O)OC(C)(C)C)NC(=O)[C@H](C)NC(=O)[C@H](CC(C)C)NC(C)=O)C(=O)N[C@@H](C)C(=O)N[C@@H](CCCCNC(=O)OC(C)(C)C)C(=O)N[C@@H](C)C(=O)N[C@@H](CC(=O)O)C(N)=O |  |  |  | ring closure, conversion by HPLC (% crude UHPLC purity after cleavage) ([1]; 20-membered ring): 63 and 54
C=NCCCC[C@H](NC(=O)[C@H](CCCCNC(=O)OC(C)(C)C)NC(=O)[C@H](CC(C)C)NC(C)=O)C(=O)N[C@@H](CC(C)C)C(=O)N[C@@H](CC(C)C)C(=O)N[C@@H](CCCCNC(=O)OC(C)(C)C)C(=O)N[C@@H](CCC(=O)O)C(=O)N[C@@H](CC(C)C)C(=O)N[C@@H](CC(C)C)C(=O)N[C@@H](CCCCNC(=O)OC(C)(C)C)C(=O)N[C@@H](CCCCNC(=O)OC(C)(C)C)C(=O)N[C@@H](CC(C)C)C(N)=O |  |  |  | ring closure, conversion by HPLC (% crude UHPLC purity after cleavage) ([1]; 21-membered ring): 68
CC(=O)N[C@@H](CC(C)C)C(=O)N[C@@H](CCCCN)C(=O)N[C@@H](CCCCN)C(=O)N[C@@H](CC(C)C)C(=O)N[C@@H](CC(C)C)C(=O)N[C@@H](CCCCN)C(=O)N[C@@H](CCCCN)C(=O)N[C@H]1CCCCNC(=O)CC[C@@H](C(N)=O)NC(=O)[C@H](CCCCN)NC(=O)[C@H](CCCCN)NC(=O)[C@H](CC(C)C)NC1=O [Peptide 6, Ac-(cyclo-8,12))-[LKKLLKKKLKKE]-NH2] (Ac-LKKLLKKKLKKE-NH2; lactam 8-12) |  |  |  | IC50 (Botrytis cinerea Pers.): > 50 µM; IC50 [2, 3]: 18 µM; IC50 (Septoria tritici Desm.): 16.6 µM
Ac-(N-(2-(n-butylamino)-2-oxoethyl)-(cyclo-8,12))-[LAKLLKAKAKAD]-NH2 (sidechain bridge or staple) [Peptide 2] | > 50 | 26.2 | > 50 | 
Ac-(N-(2-(n-dodecylamino)-2-oxoethyl)-(cyclo-8,12))-[LAKLLKAKAKAD]-NH2 (sidechain bridge or staple) [Peptide 3] | 9.8 | 14.3 | 5.9 | 
Ac-(cyclo-8,12))-[LAKLLKAKAKAD]-NH2 (sidechain bridge or staple) [Peptide 4] | > 50 | 20.9 | > 50 | 
Ac-LAKLLKAKAKAD-NH2 [Peptide 1] | > 50 | > 50 | > 50 | 
Ac-LKKLLKKLLKKL-NH2 [Peptide 5, Ac-LKKLLKKLLKKL] |  |  |  | IC50 (Botrytis cinerea Pers.): > 50 µM; IC50 [2, 3]: 5.4 µM; IC50 (Septoria tritici Desm.): 4.5 µM
